This is an account of results in paper PMC3004533 (Chemico-biological interactions, 2010).

The target in the assay is T1, COX-2 (cyclooxygenase-2) (Homo sapiens, UniProt P35354).
T1 sequence (P35354 18-604): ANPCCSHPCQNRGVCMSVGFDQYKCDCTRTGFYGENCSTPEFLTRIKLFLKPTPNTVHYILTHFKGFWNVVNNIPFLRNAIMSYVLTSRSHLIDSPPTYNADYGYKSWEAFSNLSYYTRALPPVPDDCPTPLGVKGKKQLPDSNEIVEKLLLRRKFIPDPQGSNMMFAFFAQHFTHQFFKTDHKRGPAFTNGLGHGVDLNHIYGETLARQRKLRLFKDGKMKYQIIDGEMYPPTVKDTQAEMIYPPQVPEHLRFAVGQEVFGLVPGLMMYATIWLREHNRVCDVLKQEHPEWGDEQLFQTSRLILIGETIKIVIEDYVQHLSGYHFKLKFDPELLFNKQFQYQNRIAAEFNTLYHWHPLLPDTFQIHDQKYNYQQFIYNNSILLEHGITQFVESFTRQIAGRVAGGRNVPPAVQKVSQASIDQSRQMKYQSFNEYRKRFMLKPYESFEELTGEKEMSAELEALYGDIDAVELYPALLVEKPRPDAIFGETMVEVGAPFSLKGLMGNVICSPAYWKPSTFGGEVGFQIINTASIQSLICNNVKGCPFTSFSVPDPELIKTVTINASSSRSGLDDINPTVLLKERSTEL
Type of assay: biochemical. The conditions noted are these: read-out: Ki.

As to `C[Se]Cc1ccc(-c2cc(C(F)(F)F)nn2-c2ccc(S(N)(=O)=O)cc2)cc1` [selenocoxib-3, 4-[5-(4-Methylseleanylmethyl-phenyl)-3-trifluoromethyl-pyrazol-1-yl]-benezenesulfonamide], the KI (inactivation) came out at 2400 nM. In the case of `Cc1ccc(-c2cc(C[Se]C#N)nn2-c2ccc(S(N)(=O)=O)cc2)cc1` [selenocoxib-2, 4-(3-Selenocyanatomethyl-5-p-tolyl-1-yl)-benzenesulfonamide] it was 730 nM.
